Among the data in US20190169140A1, “IDO1 INHIBITOR AND PREPARATION METHOD AND APPLICATION THEREOF” (SHANDONG LUYE PHARMACEUTICAL CO., LTD., priority 2016, published 2019) are IC50, Papp A→B and Papp B→A values, retold here.

By IC50 is commonly meant the concentration that inhibits the measured activity by half. One may read the Papp A→B as the apparent permeability from the apical to the basolateral side of a cell layer. High values mean fast passage, low ones slow passage. The Papp B→A is how fast a substance crosses the layer from the basolateral side.

Data set [1] has as its target T1, recombinant human IDO1 enzyme (Homo sapiens, UniProt P14902).
T1 construct: purchased NTRC (Netherlands Translational Research Center) NTRC-hIDO-10K
As to the kind of experiment: Test of hIDO1 for enzymatic activity in vitro (NFK Green fluorescence). The class given is biochemical. The method, then:
1. Test of hIDO1 for Enzymatic Activity In Vitro
1.1 Purpose of Experiment:
Changes in production of NFK, an IDO1 enzymatic metabolite were detected with NFK Green™ fluorescent molecules. With an IC50 value of a compound as an index, an inhibitory effect of the compound on recombinant human IDO1 enzyme was evaluated.
The compound was diluted with dimethyl sulfoxide (DMSO) to 1 mM, with 10 gradients, each 3-fold dilution, in duplicate. 48 μL of 50 mM phosphate buffer, having pH of 6.5, was transferred by the Bravo automatic liquid processing platform to the compound plate. Then 2 μL of an already diluted compound/DMSO solution was added. After even mixing, 10 μL of the resultant mixture was transferred to the enzymatic reaction plate.
IDO1 enzyme was diluted to 20 nM in a reaction buffer (50 mM phosphate buffer with pH of 6.5, 0.1% of Tween-20, 2% of glycerol, 20 mM ascorbic acid, 20 μg/ml catalase, and 20 μM methylene blue), 20 μL of the diluted IDO1 enzyme was transferred to the enzymatic reaction plate, and incubated at 23° C. for 30 minutes. 10 μL of 400 μM L-type tryptophan substrate was added to start reaction. The incubation lasted at 23° C. for 90 minutes. 10 μL of NFK Green™ fluorescent dye was added. The resultant mixture was sealed with the plate sealing film. After incubation at 37° C. for 4 hours, an Envision multi-functional plate reader was used for reading (Ex 400 nm/Em 510 nm).
A reference well to which the IDO1 enzyme was added but no compound was added was set to have an inhibition rate of 0%, and a reference well to which no IDO1 enzyme was added was set to have an inhibition rate of 100%. Data was analyzed with XLFit 5 to calculate an IC50 value of the compound.

The target in data set [2] is T2, IDO1 enzyme in Hela cells (Homo sapiens, UniProt P14902).
T2 construct: endogenous in cells; host or cells: Hela cells, induced with recombinant human interferon-γ
As to the kind of experiment: Test of hIDO1 for cytological activity (Hela cell kynurenine by LCMS, interferon-γ induced). The class given is cell-based. The note with it: interferon-γ 100 ng/ml, 20 hours. The method, then:
2. Test of hIDO1 for Cytological Activity
Changes in Hela cell kynurenine were detected by an LCMS method. With an IC50 value of a compound as an index, an inhibitory effect of the compound on IDO1 enzyme was evaluated.
The culture medium, trypsin, and DPBS were preheated in water bath at 37° C. The culture medium was removed by sucking from cell culture, followed by cleaning the cell culture with 10 mL of DPBS; the preheated trypsin was added to the culture flask, which was revolved to make the culture flask covered by trypsin uniformly, and placed into an incubator at 37° C. with 5% CO2 for digestion for 1-2 minutes; 10-15 mL of the culture medium was used to suspend cells each T150, followed by centrifugation at 800 rpm for 5 minutes. 10 mL of the culture medium was used to resuspend the cells. 1 mL of the cell resuspension was pipetted, and counted with Vi-cell; the Hela cells were diluted to 5×10^5/mL with the culture medium, 80 μL of the diluted Hela cells were added to the 96-well cell plate, and incubated in the an incubator at 37° C. with 5% CO2 for 5-6 hours.
The compound was diluted with DMSO to 1 mM, with 9 gradients, each 3-fold dilution, in duplicate. 5 μL of the already diluted compound DMSO solution was added to the compound plate containing 95 μL of the culture medium. After even mixing, 10 μL of the mixture was transferred to the cell plate.
10 μL of recombinant human interferon-γ was added to result in a final concentration of 100 ng/ml, to induce expression of IDO1. Incubation was carried out in the 5% CO2 incubator at 37° C. for 20 hours. 4 μL of 5% (w/v) trichloroacetic acid was added, followed by even mixing and incubation at 50° C. for 30 minutes. After centrifugation at 2400 rpm for 10 minutes, 40 μL of a supernatant was added to a 96-well V-bottom plate, followed by addition of a precipitant. Centrifugation was carried out at 4000 rpm for 10 minutes after even mixing. 100 μL of the supernatant was transferred to a new 96-well V-bottom plate. A content of kynurenine was detected through LCMS.
A reference well to which the interferon-γ was added but no compound was added was set to have an inhibition rate of 0%, and a reference well to which no Hela cell was added was set to have an inhibition rate of 100%. Data was analyzed with XLFit 5 to calculate an IC50 value of the compound.

The nature of data set [3]: Test for permeability across MDR1. The class given is in vitro ADME. The note with it: dog, MDCK-MDR1. As for the experimental part:
Test for Permeability Across MDR1
A sample for test was dissolved in dimethyl sulfoxide (DMSO) or other suitable solvents, to be prepared into 10 mM stock solution. A suitable internal standard (IS) was dissolved in acetonitrile (ACN) or other organic solvents as a stop solution. Specific information would be described in a research report.
Fenoterol, propranolol, and digoxin acted as low-permeability control, high-permeability control, and P-gp substrate in the present research. The stock solutions of these compounds were prepared with DMSO, stocked at 2-8° C., and valid for use within 3 months.
In the present project, a Hank's balanced salt buffer containing 10 mM HEPES was used as a transport buffer.
MDR1-MDCK II cells were cultivated using α-MEM culture media (α-Minimum Essential Media), with a culture condition of 37±1° C., 5% CO2, and saturated relative humidity. Afterwards, the cells were inoculated into a BD Transwell-96-well plate (BD Gentest), with an inoculation density of 2.3×10^5 cells/cm^2, then the cells were placed in a carbon dioxide incubator to be incubated for 4-7 days, and then used for a transport experiment.
A solution to be used was placed in a 37±1° C. water bath kettle to be pre-incubated for 30 minutes. The donor solution and the receiver solution were respectively added to corresponding sides of wells of cell plate (to an apical side and a basolateral side, 75 μL and 250 μL of samples were added respectively), and experiment of bidirectional transport was started. After the addition of the samples, the cell plate was placed in a 37±1° C., 5% CO2 incubator with saturated relative humidity to be incubated for 150 minutes.
The samples were all centrifuged at 3220 g for 10 minutes after being shaken in a vortex manner. A suitable volume of a supernatant was transferred to a sample analyzing plate. If analysis was not carried out immediately after the plate was sealed, the plate was stored at 2-8° C. The analysis was carried out through a method of LC/MS/MS.
The sample for test, fenoterol control, propranolol control, and digoxin were analyzed in a semiquantitative manner, and specific values of analytes to a peak area of the internal standard were taken as concentration of the controls.

T2 sequence (P14902 whole entry): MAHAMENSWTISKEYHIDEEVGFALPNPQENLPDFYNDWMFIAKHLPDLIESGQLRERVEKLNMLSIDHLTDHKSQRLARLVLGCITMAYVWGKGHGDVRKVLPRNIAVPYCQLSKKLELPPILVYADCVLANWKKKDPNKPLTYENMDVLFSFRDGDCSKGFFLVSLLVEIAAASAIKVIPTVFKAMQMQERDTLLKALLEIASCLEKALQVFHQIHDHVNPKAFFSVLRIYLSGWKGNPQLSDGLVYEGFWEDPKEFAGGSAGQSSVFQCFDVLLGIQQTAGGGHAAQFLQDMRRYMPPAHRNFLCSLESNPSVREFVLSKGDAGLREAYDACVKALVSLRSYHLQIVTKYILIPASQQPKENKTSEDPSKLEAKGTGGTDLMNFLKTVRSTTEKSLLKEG
T1 sequence (P14902 whole entry): as above

As for `CS(=O)(=O)NCCOc1nonc1/C(=N/O)Nc1ccc(F)c(Br)c1` [Compound 0106], the IC50 in data set [1] amounted to 0.106 µM; in data set [2] it was 0.0369 µM.

In data set [3], `CCS(=O)(=O)NCCSc1nonc1/C(=N/O)Nc1ccc(F)c(Br)c1` [Compound 0228] gave an apparent permeability from apical to basolateral (Papp A→B) at 150 min, 2 µM of 6.78 ×10⁻⁶ cm/s. Further, the Papp B→A at 150 min, 2 µM in data set [3] is 10.5 ×10⁻⁶ cm/s. The IC50 is 0.101 µM in data set [1] and 0.00397 µM in data set [2].

As to `NS(=O)(=O)NCCSc1nonc1/C(=N/O)Nc1ccc(F)c(C(F)(F)F)c1` [Compound 0157], the 50% inhibitory concentration (IC50) is 0.16 µM in data set [1] and 0.0134 µM in data set [2].

Regarding `O=C(CSc1nonc1/C(=N/O)Nc1ccc(F)c(Br)c1)NO` [Compound 0260], the values for the concentration for half-maximal inhibition (IC50) in data set [1] and in data set [2] were 0.0746 µM and 0.0315 µM, respectively.

As for `N=C(N)NC(=N)NCCSc1nonc1/C(=N/O)Nc1ccc(F)c(Br)c1` [Compound 0384], the concentration for half-maximal inhibition (IC50) in data set [1] was found to be 0.173 µM; in data set [2] it was 0.152 µM.

Turning to `O=C(CO)NCCSc1nonc1/C(=N/O)Nc1ccc(F)c(Br)c1` [Compound 0293], the 50% inhibitory concentration (IC50) in data set [1] was 0.0601 µM; in data set [2], 0.0295 µM.

Regarding `OCCOc1nonc1/C(=N/O)Nc1ccc(F)c(Br)c1` [Compound 0177], the IC50 in data set [1] was 0.279 µM; in data set [2] it was 0.0542 µM.

On to `NCCOc1nonc1/C(=N/O)Nc1ccc(F)c(Br)c1` [Compound 0147], for which the half-inhibitory concentration (IC50) in data set [1] was determined as 0.0715 µM; in data set [2], 0.123 µM.

Consider `NC(=O)CSc1nonc1/C(=N/O)Nc1ccc(F)c(Br)c1` [Compound 0251], for which the half-maximal inhibitory concentration (IC50) in data set [1] amounted to 0.0443 µM; in data set [2], 0.00715 µM.

For the compound `NS(=O)(=O)NCCCOc1nonc1/C(=N/O)Nc1ccc(F)c(Br)c1` [Compound 0118], the IC50 in data set [1] is 0.0553 µM; in data set [2], 0.0645 µM.

`O=C(NCCSc1nonc1/C(=N/O)Nc1ccc(F)c(Br)c1)NC1CC1` [Compound 0234]: the IC50 in data set [1] was found to be 0.077 µM; in data set [2], 0.00958 µM.

`NS(=O)(=O)NCCSc1nonc1/C(=N/O)Nc1cccc(I)c1` [Compound 0295]: the IC50 was 0.122 µM in data set [1] and 0.0472 µM in data set [2].

In the case of `O=CNCCSc1nonc1/C(=N/O)Nc1ccc(F)c(Br)c1` [Compound 0245], the IC50 in data set [1] was 0.0744 µM; in data set [2], 0.0148 µM.

As to `CNC(=O)CSc1nonc1/C(=N/O)Nc1ccc(F)c(Br)c1` [Compound 0237], the IC50 is 0.0423 µM in data set [1] and 0.00851 µM in data set [2].

Consider `CNC(=O)NCCSc1nonc1/C(=N/O)Nc1ccc(F)c(Br)c1` [Compound 0233], for which the half-maximal inhibitory concentration (IC50) was 0.109 µM in data set [1] and 0.0192 µM in data set [2].

With `N#C/N=C(\N)NCCSc1nonc1/C(=N/O)Nc1ccc(F)c(Br)c1` [Compound 0310], the half-maximal inhibitory concentration (IC50) in data set [1] amounted to 0.0973 µM; in data set [2], 0.0128 µM.

Consider `CNS(=O)(=O)NCCSc1nonc1/C(=N/O)Nc1ccc(F)c(Br)c1` [Compound 0240], for which the figures for the IC50 in data set [1] and in data set [2] were 0.128 µM and 0.0262 µM, respectively.

Take `NC(=O)CCSc1nonc1/C(=N/O)Nc1ccc(F)c(Br)c1` [Compound 0262]: the half-inhibitory concentration (IC50) came to 0.0896 µM in data set [1] and 0.0708 µM in data set [2].

On to `CS(=O)(=O)NCCSc1nonc1/C(=N/O)Nc1ccc(F)c(Br)c1` [Compound 0229], for which the IC50 stood at 0.0801 µM in data set [1] and 0.0112 µM in data set [2].

As to `O=C(CSc1nonc1/C(=N/O)Nc1ccc(F)c(Br)c1)NC1CC1` [Compound 0247], the figures for the IC50 in data set [1] and in data set [2] were 0.0957 µM and 0.0171 µM, respectively.

With `CNC(=O)COc1nonc1/C(=N/O)Nc1ccc(F)c(Br)c1` [Compound 0139], the concentration for half-maximal inhibition (IC50) was 0.265 µM in data set [1] and 0.1 µM in data set [2].

Take `NC(=O)NCCSc1nonc1/C(=N/O)Nc1cccc(I)c1` [Compound 0309]: the 50% inhibitory concentration (IC50) in data set [1] was 0.0545 µM; in data set [2], 0.0235 µM.

For `NS(=O)(=O)N[C@H]1C[C@@H](Oc2nonc2/C(=N/O)Nc2ccc(F)c(Br)c2)C1` [Compound 0225], the IC50 in data set [1] is 0.274 µM; in data set [2], 0.0187 µM.

With `O=S(=O)(O)NCCOc1nonc1/C(=N/O)Nc1ccc(F)c(Br)c1` [Compound 0148], the 50% inhibitory concentration (IC50) in data set [1] stood at 0.147 µM; in data set [2], 0.159 µM.

With `COC(=O)NCCSc1nonc1/C(=N/O)Nc1ccc(F)c(Br)c1` [Compound 0250], the IC50 in data set [1] came out at 0.138 µM; in data set [2], 0.027 µM.

Consider `N=C(N)NCCSc1nonc1/C(=N/O)Nc1ccc(F)c(Br)c1` [Compound 0383], for which the results for the IC50 in data set [1] and in data set [2] were 0.1 µM and 0.105 µM, respectively.

For `O=C(NCCSc1nonc1/C(=N/O)Nc1ccc(F)c(Br)c1)C(F)F` [Compound 0287], the IC50 in data set [1] turned out to be 0.0694 µM; in data set [2], 0.0129 µM.

Take `CNC(=O)CCSc1nonc1/C(=N/O)Nc1ccc(F)c(Br)c1` [Compound 0238]: the IC50 in data set [1] was 0.0854 µM; in data set [2] it was 0.0139 µM.

Take `O=C(NCCSc1nonc1/C(=N/O)Nc1ccc(F)c(Br)c1)C1CC1` [Compound 0236]: the concentration for half-maximal inhibition (IC50) in data set [1] was 0.129 µM; in data set [2] it was 0.0554 µM.
